Assay in all cases: inhibition of tumour cell growth, NCI panel, 48 h
The test system of test [1] is NCI-H522 lung.
The test system of test [2] is CCRF-CEM leukemia.
Test [3] has as its system MALME-3M melanoma.
Test [4] has as its system CAKI-1 renal.
The subject of test [5] is SK-MEL-28 melanoma.
Test [6] has as its system SK-MEL-2 melanoma.
For test [7], the system named is RPMI-8226 leukemia.
Test [8] concerns NCI/ADR-RES ovarian.
Test [9] has as its system MCF7 breast.
In test [10] the test system is UACC-62 melanoma.

“And” between values parts separate entries of the source, which are not always exact repeats. Equal entries are not always repeated.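 Cultured in 96-well plates, cells were exposed to test compound for 48 hours across five concentrations. GI50 marks 50% less growth. TGI marks complete inhibition of growth.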

In the case of `CN(C)C=Nc1nc(=O)n(C2CCC(CO)O2)cc1F` (stereo not given), the TGI in test [1], in test [2], in [3], in [4], in test [5] and in test [6] was over 100 µM throughout. The same molecule showed a TGI in test [7] of over 100 µM.
For the molecule `NCCNCCNCCN`, the GI50 in [2] is over 100 µM; in test [8], over 100 µM; in test [4], over 100000 nM; in test [5], over 100000 nM; in test [9], over 100 µM; in test [6], over 100 µM. Further, the GI50 in test [10] is over 100 µM. Moreover, the TGI in [2], in [8], in test [4], in test [5], in test [9] and in test [6] was over 100 µM in each case. Also, the TGI in test [10] was over 100 µM.
Turning to `C=C1C(=O)O[C@H]2[C@H]1CC/C(CNC(=O)c1cc3ccccc3[nH]1)=C\CC[C@@]1(C)O[C@@H]21`, the GI50 in [1] was 1.57 µM; in test [2], 0.375 µM; in [3], 1.78 µM; in [8], 3.08 µM; in test [4], 1270 nM; in test [6], 1.88 µM. Further, the GI50 in [7] was 1.02 µM. Further, the TGI in test [1] is 3.31 µM; in test [2] it was 1.76 µM; in [3] it was 3.6 µM; in test [8], 12.3 µM; in [4] it was 4.26 µM; in test [6], 4.29 µM. For the same molecule, the TGI in test [7] worked out at 3.88 µM.
`CCOC(=O)C1=C(C)N(NC(=O)Nc2ccccc2)C2(N)N(NC(=O)Nc3ccccc3)C(C)=C(C(=O)OCC)C12C(=O)OCC` (stereo not given): the TGI in test [1] was over 100 µM; in test [3], 93.5 µM; in [5] it was over 100 µM; in test [6], over 100 µM; in test [7], over 100 µM; in test [10] it was over 100 µM.
For the molecule `CN(C)C(=S)/N=c1\ssc(=S)n1C1CCCCC1`, the TGI in test [1] was 37.4 µM; in test [2], 46.1 µM; in test [3], 64.8 µM; in [4], 90.6 µM; in [5], over 100 µM; in test [6] it was over 100 µM. For the same molecule, the TGI in test [10] was 34.2 µM.
Regarding `O=C(NC1C=CCC2C(=O)N(c3ccccc3)C(=O)C12)OCc1ccccc1` (stereo not given), the TGI in [1], in test [2], in test [4], in test [5], in [6] and in test [7] was over 100 µM in each case. The molecule also gave a TGI in test [10] of over 100 µM.
Turning to `Cc1ccc(S(=O)(=O)N2CCC2c2ccccc2)cc1` (stereo not given), the TGI in test [1], in test [2], in [3], in test [5], in test [6] and in [7] was over 100 µM in each case. This molecule also gave a TGI in [10] of over 100 µM.
Turning to `C[C@@]1(O)CC[C@]2(C)C3CCCC3[C@H]12` (stereo not given in full), the TGI in [1], in [2], in test [3], in test [4], in test [5] and in [6] was over 100 µM each time. Besides, the TGI in [7] and in test [10] was over 100 µM in each case.
Turning to `O=C1C(C(Nc2ccccc2)c2ccccc2)=C([O-])c2ccccc21.O=C1C(C(Nc2ccccc2)c2ccccc2)=C([O-])c2ccccc21.[Cu+2]` (stereo not given), the GI50 is 23.7 µM in test [1]; 65.8 µM in test [3]; over 100000 nM in test [4]; over 100000 nM in [5]; 24.8 µM in test [7]; 50.6 µM in [10]. Further, the TGI is 73.6 µM in test [1]; over 100 µM in test [3]; over 100 µM in test [4]; over 100 µM in [5]; over 100 µM in [7]; over 100 µM in test [10].
`C=C(C)C12OC1[C@@]1(C)C(=CC2=O)CCC(O)[C@@H]1C` (stereo not given in full): the TGI is 5.91 µM in test [1]; 8.82 µM in test [2]; 25.1 µM in test [3]; 3 µM in test [4]; over 100 µM in test [5]; over 100 µM in test [9]. Also, the TGI in test [6] came out at 20.1 µM; in test [7] it was 24 µM; in test [10] it was 75.4 µM.
With `CN(C)CC(O)c1ccc(/C=C/c2ccc(Cl)cc2)cc1` (stereo not given), the GI50 in test [2] is 2.26 µM; in test [3], 1.6 µM; in test [8], 1.67 µM; in test [4], 706 nM; in test [5], 1840 nM; in test [9], 1.63 µM. In addition, the GI50 was 5.34 µM in [7] and 1.62 µM in [10]. For the same molecule, the TGI in test [2] was 4.88 µM; in [3], 3.34 µM; in [8], 3.19 µM; in test [4] it was 2.05 µM; in [5], 3.45 µM; in [9] it was 3.19 µM. For the same molecule, the figures for the TGI in test [7] and in test [10] were 22.4 µM and 3.02 µM, respectively.
Take `O=c1c2cccnc2ncn1CCN1CCCCC1`: the TGI in test [1], in test [2], in [3], in [4], in [5] and in [6] was over 100 µM throughout. Moreover, the TGI in [10] was over 100 µM.
For the molecule `COc1ccc2c(c1)[n+]([O-])c(C(N)=O)c(N)[n+]2[O-]`, the TGI in test [1] was 31.1 µM; in [3], over 100 µM; in test [4] it was over 100 µM; in test [5] it was over 100 µM; in test [6], over 100 µM; in test [7] it was over 100 µM.
As for `[O-][Cl+3]([O-])([O-])[O-].[O]=[Ru]=[O].c1ccc(-c2ccccn2)nc1.c1ccc(-c2ccccn2)nc1`, the GI50 in test [1] is over 100 µM; in test [2] it was over 100 µM; in test [3], over 100 µM; in test [4], over 100000 nM; in [5], 92100 nM; in [6], over 100 µM. Further, the values for the GI50 in test [7] and in test [10] were 29.7 µM and over 100 µM, respectively. Moreover, the TGI in test [1], in test [2], in test [3], in test [4], in test [5] and in [6] was over 100 µM each time. For the same molecule, the TGI in test [7] and in [10] was over 100 µM in each case.
For the molecule `CC(=O)[O-].CC(=O)[O-].O=C(N/N=C/c1cc(Cl)cc(Cl)c1O)c1ccncc1.[Cu+2]`, the TGI in [1], in test [2], in test [3], in [5], in test [6] and in test [7] was over 100 µM throughout. This molecule had a TGI in test [10] of over 100 µM. Moreover, in test [6], the GI50 was over 100 µM.
As to `Cn1cc(-c2cc3c(N4CCN(c5ncc([C@@](C)(N)c6ccc(F)cc6)cn5)CC4)ncnn3c2)cn1`, the GI50 in [2] was 2.87 µM; in [3], 4.16 µM; in test [4], 2630 nM; in test [9] it was 2.56 µM; in [6], 25.4 µM; in test [10], 5.23 µM. In addition, the TGI in test [2], in [3], in [4], in [9], in test [6] and in [10] was over 100 µM each time.
As for `Clc1ccc2cccc3c2c1C1OC3c2ccccc21` (stereo not given), the TGI in test [1], in test [2], in test [3], in test [5], in test [6] and in test [7] was over 100 µM throughout. This molecule registered a TGI in test [10] of over 100 µM.
As for `Cc1[cH-]c(=O)n(-c2ccccc2)n1.[Au+].[Au].c1ccc([PH+](c2ccccc2)c2ccccc2)cc1.c1ccc([PH+](c2ccccc2)c2ccccc2)cc1`, the GI50 in [1] was 3.46 µM and 12.4 µM; in test [2], 22.8 µM; in [3] it was 9.61 µM; in [5] it was 2520 nM; in [6], 4.64 µM and 8.64 µM; in test [7], 99.4 µM. The GI50 in [10] was 3.55 µM and 22.2 µM. Further, the TGI is 51.5 µM in [1]; over 100 µM in test [2]; 31.1 µM in [3]; 14.9 µM in test [5]; 23.5 µM in test [6]; over 100 µM in [7]. This molecule also displayed a TGI in test [10] of over 100 µM.
As to `N#CCCC[Si]12OCCN(CCO1)CCO2`, the TGI in test [1], in test [2], in test [3], in test [4], in test [5] and in test [6] was over 100 µM each time. In addition, the TGI in [7] and in [10] was over 100 µM throughout.
For `O=C(/C=C/c1c(O)ccc2ccccc12)c1ccc([N+](=O)[O-])cc1`, the TGI was 31.2 µM in [1]; over 75.8 µM in test [2]; 49.7 µM in [3]; over 74 µM in test [4]; over 67.6 µM in [5]; over 100 µM in test [6]. The TGI in test [7] was over 100 µM; in test [10], 33.3 µM.
Take `COc1c(CC(C)=O)ccc2c1C(=O)c1ccc(C=O)c(OC(C)=O)c1C2=O`: the TGI was determined as 8.39 µM in test [1]; 55.9 µM in test [2]; 25.5 µM in [3]; 47 µM in test [4]; 23 µM in test [5]; 30.3 µM in test [6]. Further, the TGI in test [7] stood at 63.3 µM; in test [10], 18.5 µM.
With `CCOC(=O)C1Sc2ccccc2N=C1C` (stereo not given), the TGI in [1], in test [3], in [5], in test [6] and in test [7] was over 100 µM in each case.
`CN1C(=O)C(=O)N2c3ccc(Cl)cc3C3(c4ccccc4)N=CC12O3` (stereo not given): the TGI in test [1] was found to be 9.14 µM; in test [2] it was 17.5 µM; in test [3] it was 47.2 µM; in test [4], 42.7 µM; in test [5] it was 12.1 µM; in test [6], 30.5 µM. Moreover, the TGI in test [7] was 6.87 µM; in test [10] it was 15.3 µM.
Take `COc1ccc(/C=C/COC(C)=O)cc1OC`: the TGI in [1], in test [3], in test [4], in [5], in test [6] and in test [7] was over 100 µM throughout. The TGI in test [10] is over 100 µM.
For `CN(C)CC1CCCC/C1=N/O` (stereo not given), the TGI in test [1], in [2], in test [3], in test [4], in test [5] and in test [6] was over 100 µM throughout. For the same molecule, the TGI in [7] and in test [10] was over 100 µM throughout.
For `O=c1[nH]c(-c2ccccc2)nc2cc(Cl)ccc12`, the TGI in [2], in test [3], in test [4], in test [5], in [6] and in test [7] was over 100 µM each time. In [10], this molecule gave a TGI of over 100 µM.
In the case of `CCC(C)SC1SCC2C(=O)N(C)C3(CC3C)C(=O)OCC(NC(=O)c3nc4ccccc4cc3O)C(=O)NC(C)C(=O)N(C)C1C(=O)N(C)C1(CC1C)C(=O)OCC(NC(=O)c1nc3ccccc3cc1O)C(=O)NC(C)C(=O)N2C` (stereo not given), the GI50 in test [1] was 1.85e-05 µM; in test [4], 0.087 nM; in test [5], 0.0302 nM. Besides, the TGI in [1] was 0.00022 µM; in [2] it was 0.028 µM and < 0.013 µM; in test [3], 0.000422 µM; in test [8], 6.15 µM; in test [5] it was 0.000138 µM; in test [6] it was 0.000304 µM. Further, the figures for the TGI in test [7] and in [10] were 0.00233 µM and 5.01e-05 µM, respectively.
As to `CCCOc1nc(N)c2cnn(C3CCCCO3)c2n1` (stereo not given), the TGI in test [1], in test [2], in test [3], in [4], in test [5] and in test [6] was over 100 µM each time. Moreover, the TGI in test [7] and in test [10] was over 100 µM each time.

(Values after PubChem BioAssay (NCI).)
